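Cells were grown in 96-well plates and exposed to each compound for 48 hours at five concentrations; endpoints were interpolated linearly between bracketing concentrations, or set to the highest concentration if not reached. TGI is the concentration that stops growth completely.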
How the values were obtained:
Test in all cases: NCI tumour cell line growth inhibition, 48 h
786-0 renal = test system: 786-0 renal
A498 renal = test system: A498 renal
A549 NSCLC = test system: A549 NSCLC
ACHN renal = test system: ACHN renal
BT-549 breast = test system: BT-549 breast
CAKI-1 renal = test system: CAKI-1 renal
CCRF-CEM leukemia = test system: CCRF-CEM leukemia
COLO 205 colon = test system: COLO 205 colon
DU-145 prostate = test system: DU-145 prostate
EKVX NSCLC = test system: EKVX NSCLC
HCC-2998 colon = test system: HCC-2998 colon
HCT-116 colon = test system: HCT-116 colon
HCT-15 colon = test system: HCT-15 colon
HOP-62 NSCLC = test system: HOP-62 NSCLC
HOP-92 NSCLC = test system: HOP-92 NSCLC
HT29 colon = test system: HT29 colon
IGROV1 ovarian = test system: IGROV1 ovarian
K-562 leukemia = test system: K-562 leukemia
KM12 colon = test system: KM12 colon
LOX IMVI melanoma = test system: LOX IMVI melanoma
M14 melanoma = test system: M14 melanoma
MALME-3M melanoma = test system: MALME-3M melanoma
MCF7 breast = test system: MCF7 breast
MDA-MB-231 breast = test system: MDA-MB-231 breast
MDA-MB-435 = test system: MDA-MB-435
MDA-N = test system: MDA-N
MOLT-4 leukemia = test system: MOLT-4 leukemia
NCI-H226 lung = test system: NCI-H226 lung
NCI-H23 lung = test system: NCI-H23 lung
NCI-H460 lung = test system: NCI-H460 lung
NCI-H522 lung = test system: NCI-H522 lung
NCI/ADR-RES ovarian = test system: NCI/ADR-RES ovarian
OVCAR-3 ovarian = test system: OVCAR-3 ovarian
OVCAR-4 ovarian = test system: OVCAR-4 ovarian
OVCAR-5 ovarian = test system: OVCAR-5 ovarian
OVCAR-8 ovarian = test system: OVCAR-8 ovarian
PC-3 prostate = test system: PC-3 prostate
RPMI-8226 leukemia = test system: RPMI-8226 leukemia
SF-295 CNS = test system: SF-295 CNS
SF-539 CNS = test system: SF-539 CNS
SK-MEL-2 melanoma = test system: SK-MEL-2 melanoma
SK-MEL-28 melanoma = test system: SK-MEL-28 melanoma
SK-MEL-5 melanoma = test system: SK-MEL-5 melanoma
SK-OV-3 ovarian = test system: SK-OV-3 ovarian
SN12C renal = test system: SN12C renal
SNB-19 CNS = test system: SNB-19 CNS
SNB-75 CNS = test system: SNB-75 CNS
SR leukemia = test system: SR leukemia
SW-620 colon = test system: SW-620 colon
T-47D breast = test system: T-47D breast
TK-10 renal = test system: TK-10 renal
U251 CNS = test system: U251 CNS
UACC-257 melanoma = test system: UACC-257 melanoma
UACC-62 melanoma = test system: UACC-62 melanoma
UO-31 renal = test system: UO-31 renal
HL-60(TB) leukemia = test system: HL-60(TB) leukemia
HS 578T breast = test system: HS 578T breast
RXF 393 renal = test system: RXF 393 renal
SF-268 CNS = test system: SF-268 CNS

Measured: TGI

Cn1c2ccccc2c2c3c(c4c5ccccc5n(C)c4c21)C(=O)N(c1ccccc1)C3=O
not listed: HL-60(TB) leukemia | HS 578T breast | RXF 393 renal | SF-268 CNS
> 100 µM: all other assays above

C[C@H]1CC[C@@H]2[C@@H](C)[C@H]3[C@H](C[C@H]4[C@@H]5CC=C6C[C@@H](O)CC[C@]6(C)[C@H]5CC[C@]34C)N2C1
46.1 µM: RXF 393 renal
54 µM: HL-60(TB) leukemia
41.7 µM: A498 renal
58.3 µM: HOP-92 NSCLC
56.1 µM: SR leukemia
43 µM: HT29 colon
39.2 µM: COLO 205 colon
97.9 µM: HS 578T breast
not listed: K-562 leukemia | SNB-75 CNS
> 100 µM: all other assays above

CCOc1ccccc1N=Cc1c2ccccc2cc2ccccc12
67.2 µM: TK-10 renal
47.7 µM: SNB-75 CNS
> 67.6 µM: OVCAR-3 ovarian
> 68.8 µM: PC-3 prostate
> 74.4 µM: UACC-257 melanoma
70 µM: OVCAR-8 ovarian
> 92.4 µM: CAKI-1 renal
70.1 µM: BT-549 breast
56.5 µM: RPMI-8226 leukemia
> 83.5 µM: HCT-15 colon
45.9 µM: NCI-H23 lung
> 73.5 µM: SK-MEL-28 melanoma
68.6 µM: SK-OV-3 ovarian
54.5 µM: SF-268 CNS
> 93.3 µM: ACHN renal
43.6 µM: UO-31 renal
54.2 µM: HT29 colon
53.3 µM: MDA-N | MOLT-4 leukemia
67.4 µM: MDA-MB-231 breast
> 88.7 µM: COLO 205 colon
52.3 µM: EKVX NSCLC
37.4 µM: RXF 393 renal
61.7 µM: SR leukemia
> 72.4 µM: A498 renal
56 µM: MDA-MB-435
> 53.9 µM: HS 578T breast
58.4 µM: DU-145 prostate
> 88.4 µM: SNB-19 CNS
80.9 µM: A549 NSCLC
> 67.7 µM: K-562 leukemia
> 84.3 µM: HOP-62 NSCLC
> 66.1 µM: NCI/ADR-RES ovarian
38.2 µM: LOX IMVI melanoma
> 71.4 µM: SF-539 CNS
61.5 µM: SN12C renal
53 µM: HL-60(TB) leukemia
49.3 µM: KM12 colon
> 83.8 µM: SK-MEL-5 melanoma
64.1 µM: T-47D breast
49.9 µM: IGROV1 ovarian
> 79.8 µM: MCF7 breast
41.1 µM: 786-0 renal | M14 melanoma
> 58.1 µM: CCRF-CEM leukemia
> 63.9 µM: U251 CNS
41.5 µM: HCT-116 colon
44.3 µM: HCC-2998 colon
> 74 µM: OVCAR-4 ovarian
53.4 µM: HOP-92 NSCLC | SK-MEL-2 melanoma
68.9 µM: OVCAR-5 ovarian
not listed: MALME-3M melanoma | NCI-H522 lung
> 100 µM: all other assays above

COc1ccc(C2NC(N)=C(C#N)C3=C2C(C)CCC3)cc1OC (stereo unspecified)
75.7 µM: HOP-62 NSCLC
16.7 µM: SNB-75 CNS
23 µM: SR leukemia
not listed: A498 renal | A549 NSCLC | HCC-2998 colon | HOP-92 NSCLC | NCI-H460 lung | NCI-H522 lung | OVCAR-4 ovarian
> 100 µM: all other assays above
